Source: paper PMC6704710, “Preclinical evaluation of 3D185, a novel potent inhibitor of FGFR1/2/3 and CSF-1R, in FGFR-dependent and macrophage-dominant cancer models” (Journal of Experimental & Clinical Cancer Research : CR, 2019)

Key:
Assay in all cases: Eurofins kinase panel
Type in all cases: biochemical
Conditions in all cases: read-out: Inhibition rate (%)
[1] = target: T1, EphA7(h) (Homo sapiens, UniProt Q15375)
T1 construct: purchased Eurofins (KinaseProfiler)

[2] = target: T2, IRAK4(h) (Homo sapiens, UniProt Q9NWZ3)
T2 construct: purchased Eurofins (KinaseProfiler)
T2 sequence (Q9NWZ3 1-460): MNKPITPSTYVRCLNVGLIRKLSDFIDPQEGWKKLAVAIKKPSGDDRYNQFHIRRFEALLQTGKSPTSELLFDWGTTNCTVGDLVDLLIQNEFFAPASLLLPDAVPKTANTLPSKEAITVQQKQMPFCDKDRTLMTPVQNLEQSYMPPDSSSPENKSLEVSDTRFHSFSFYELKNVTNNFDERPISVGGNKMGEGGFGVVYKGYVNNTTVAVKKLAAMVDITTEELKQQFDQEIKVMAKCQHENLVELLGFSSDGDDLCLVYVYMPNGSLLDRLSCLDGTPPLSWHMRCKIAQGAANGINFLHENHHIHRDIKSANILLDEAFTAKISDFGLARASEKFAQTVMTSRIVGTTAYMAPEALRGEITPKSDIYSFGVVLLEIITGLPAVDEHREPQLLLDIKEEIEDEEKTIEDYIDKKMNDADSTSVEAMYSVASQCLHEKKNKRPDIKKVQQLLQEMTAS

[3] = target: T3, JNK2α2(h) (Homo sapiens, UniProt P45984)
T3 construct: purchased Eurofins (KinaseProfiler)
T3 sequence (P45984 whole entry): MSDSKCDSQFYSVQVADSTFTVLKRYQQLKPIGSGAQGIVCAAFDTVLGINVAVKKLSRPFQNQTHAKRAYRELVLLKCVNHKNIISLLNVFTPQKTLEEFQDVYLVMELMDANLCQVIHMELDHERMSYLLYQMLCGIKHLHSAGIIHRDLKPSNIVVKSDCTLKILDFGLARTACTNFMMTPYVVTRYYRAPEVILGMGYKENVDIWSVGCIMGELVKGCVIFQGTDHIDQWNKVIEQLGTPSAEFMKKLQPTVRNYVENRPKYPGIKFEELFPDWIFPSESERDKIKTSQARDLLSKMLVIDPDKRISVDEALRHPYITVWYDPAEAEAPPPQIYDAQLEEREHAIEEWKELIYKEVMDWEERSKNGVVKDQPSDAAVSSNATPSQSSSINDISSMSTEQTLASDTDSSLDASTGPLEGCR

[4] = target: T4, MuSK(h) (Homo sapiens, UniProt O15146)
T4 construct: purchased Eurofins (KinaseProfiler)
T4 sequence (O15146 24-869): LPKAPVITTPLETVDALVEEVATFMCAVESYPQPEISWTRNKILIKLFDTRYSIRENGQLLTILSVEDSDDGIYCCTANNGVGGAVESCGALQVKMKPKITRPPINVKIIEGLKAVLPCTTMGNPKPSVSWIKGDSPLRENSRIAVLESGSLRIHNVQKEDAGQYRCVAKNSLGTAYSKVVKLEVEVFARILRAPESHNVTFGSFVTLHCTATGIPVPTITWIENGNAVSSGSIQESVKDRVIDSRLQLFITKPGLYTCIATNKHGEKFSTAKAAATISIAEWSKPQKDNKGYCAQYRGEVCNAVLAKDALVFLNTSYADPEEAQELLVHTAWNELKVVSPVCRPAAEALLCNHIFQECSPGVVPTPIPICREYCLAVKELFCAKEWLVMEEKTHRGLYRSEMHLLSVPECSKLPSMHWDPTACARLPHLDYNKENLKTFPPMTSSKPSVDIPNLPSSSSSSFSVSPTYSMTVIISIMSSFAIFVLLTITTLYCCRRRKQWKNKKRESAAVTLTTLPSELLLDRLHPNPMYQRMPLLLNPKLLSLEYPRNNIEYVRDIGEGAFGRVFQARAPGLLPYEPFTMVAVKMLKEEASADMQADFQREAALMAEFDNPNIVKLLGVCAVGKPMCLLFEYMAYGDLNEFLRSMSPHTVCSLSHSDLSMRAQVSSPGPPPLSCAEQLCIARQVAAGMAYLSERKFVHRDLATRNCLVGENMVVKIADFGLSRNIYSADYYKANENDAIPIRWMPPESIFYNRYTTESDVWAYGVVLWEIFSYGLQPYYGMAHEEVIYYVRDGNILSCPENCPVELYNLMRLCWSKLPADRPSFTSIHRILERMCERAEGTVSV

[5] = target: T5, PKA(h) (Homo sapiens, UniProt P17612)
T5 construct: purchased Eurofins (KinaseProfiler)

[6] = target: T6, PKAcβ(h) (Homo sapiens, UniProt P22694)
T6 construct: purchased Eurofins (KinaseProfiler)

[7] = target: T7, TRB2(h) (Homo sapiens, UniProt Q92519)
T7 construct: purchased Eurofins (KinaseProfiler)
T7 sequence (Q92519 1-343): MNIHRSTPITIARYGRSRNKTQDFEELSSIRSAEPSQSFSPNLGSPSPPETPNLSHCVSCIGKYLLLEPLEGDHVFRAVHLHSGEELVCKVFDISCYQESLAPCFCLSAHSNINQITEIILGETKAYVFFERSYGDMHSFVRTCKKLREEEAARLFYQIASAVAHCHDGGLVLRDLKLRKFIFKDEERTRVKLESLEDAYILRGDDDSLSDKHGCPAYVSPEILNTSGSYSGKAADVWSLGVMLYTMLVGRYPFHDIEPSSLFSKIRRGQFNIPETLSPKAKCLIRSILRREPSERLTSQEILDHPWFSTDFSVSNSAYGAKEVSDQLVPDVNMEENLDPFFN

T1 sequence (Q15375 28-998): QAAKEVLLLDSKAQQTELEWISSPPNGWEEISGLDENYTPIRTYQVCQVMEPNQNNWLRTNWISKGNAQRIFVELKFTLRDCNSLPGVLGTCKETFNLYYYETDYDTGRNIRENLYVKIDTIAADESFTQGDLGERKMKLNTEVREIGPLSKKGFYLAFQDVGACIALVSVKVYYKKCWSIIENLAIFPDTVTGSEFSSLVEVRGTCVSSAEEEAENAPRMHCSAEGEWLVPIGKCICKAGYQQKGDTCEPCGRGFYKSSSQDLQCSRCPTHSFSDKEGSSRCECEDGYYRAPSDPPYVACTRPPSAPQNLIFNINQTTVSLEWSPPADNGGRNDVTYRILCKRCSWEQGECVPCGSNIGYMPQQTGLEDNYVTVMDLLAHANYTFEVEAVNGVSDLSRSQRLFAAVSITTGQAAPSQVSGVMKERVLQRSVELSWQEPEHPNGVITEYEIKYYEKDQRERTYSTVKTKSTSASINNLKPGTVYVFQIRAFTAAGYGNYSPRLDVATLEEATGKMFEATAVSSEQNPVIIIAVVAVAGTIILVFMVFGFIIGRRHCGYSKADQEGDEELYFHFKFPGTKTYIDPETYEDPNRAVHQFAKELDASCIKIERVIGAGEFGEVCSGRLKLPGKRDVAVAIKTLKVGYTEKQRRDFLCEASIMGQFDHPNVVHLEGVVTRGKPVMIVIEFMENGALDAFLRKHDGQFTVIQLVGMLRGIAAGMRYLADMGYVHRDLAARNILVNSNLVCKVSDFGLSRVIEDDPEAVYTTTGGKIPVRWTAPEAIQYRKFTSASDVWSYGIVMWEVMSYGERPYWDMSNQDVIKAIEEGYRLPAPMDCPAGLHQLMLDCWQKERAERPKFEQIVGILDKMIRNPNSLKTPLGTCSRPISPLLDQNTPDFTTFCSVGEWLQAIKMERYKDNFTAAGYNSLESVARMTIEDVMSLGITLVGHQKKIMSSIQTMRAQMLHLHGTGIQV

SMILES: COc1cc(OC)c(Cl)c(-c2ccc3c(NC(=O)c4ccc(N5CCNC(C)(C)C5)cc4)n[nH]c3n2)c1Cl [3D185]
- inhibition at 0.01 µM ([1]; 10 nM): 0%
- inhibition at 0.1 µM ([1]; 100 nM): 8%
- inhibition at 1 µM ([1]; 1000 nM): 21%
- inhibition at 0.01 µM ([2]; 10 nM): -2%
- inhibition at 0.1 µM ([2]; 100 nM): -2%
- inhibition at 1 µM ([2]; 1000 nM): -4%
- inhibition at 0.01 µM ([3]; 10 nM): 3%
- inhibition at 0.1 µM ([3]; 100 nM): 4%
- inhibition at 1 µM ([3]; 1000 nM): 1%
- inhibition at 0.01 µM ([4]; 10 nM): 2%
- inhibition at 0.1 µM ([4]; 100 nM): 7%
- inhibition at 1 µM ([4]; 1000 nM): 47%
- inhibition at 0.01 µM ([5]; 10 nM): 5%
- inhibition at 0.1 µM ([5]; 100 nM): -8%
- inhibition at 1 µM ([5]; 1000 nM): 5%
- inhibition at 0.01 µM ([6]; 10 nM): -6%
- inhibition at 0.1 µM ([6]; 100 nM): -11%
- inhibition at 1 µM ([6]; 1000 nM): -11%
- inhibition at 0.01 µM ([7]; 10 nM): -3%
- inhibition at 0.1 µM ([7]; 100 nM): -7%
- inhibition at 1 µM ([7]; 1000 nM): -4%
